{"source": "patent US20230183335A1", "about": "“GLP1R AGONIST NMDAR ANTAGONIST CONJUGATES” (KØBENHAVNS UNIVERSITET, priority 2020, published 2023)", "type_in_all_cases": "in vivo", "key": {"DIO mice [1]": {"tested_on": "DIO mice", "assay": "Body weight in diet-induced obesity (DIO) mice", "details": "for reduction in body weight %: FIG. 14, DIO mice treated for 5 days, N=7; for reduction in body weight (BW %): FIG. 8, after 10 days of treatment; for body weight percentage (BW %) reduction: FIG. 4, 40 nmol/kg or equimolar, DIO mice treated for 8 days", "description": "(§1) C57BL6J male mice, in the following referred to as diet-induced obesity (DIO) mice, were maintained on a high-fat diet (58% energy from fat) and had, for each study, an average body weight of more than 45 gram prior to study start. Mice were either housed individually or double-housed. The mice were maintained on a 12 h dark-light cycle at 21-23° C. Compounds were administered subcutaneously once daily (between 2 pm-5 pm) and food intake (FI) and body weight (BW) measured at the corresponding time. For body composition, measures of fat and lean mass were performed prior to the study (1-3 days prior to study start) and on the final day of the study using an MRI scanner (EchoMRI). The group of mice injected with a vehicle (saline) served as the control group."}, "DIO mice [2]": {"tested_on": "DIO mice", "assay": "Food intake in diet-induced obesity (DIO) mice", "description": "as §1"}, "DIO mice [3]": {"tested_on": "DIO mice", "assay": "Body composition (fat and lean mass, MRI) in DIO mice", "details": "for change in fat body mass (Delta change) / change in lean body mass (Delta change): FIG. 7, 40 nmol/kg or equimolar, DIO mice treated for 8 days", "description": "as §1"}, "[4]": {"details": "100 nmol/kg or equimolar, DIO mice"}, "[5]": {"details": "FIG. 9, 100 nmol/kg or equimolar, DIO mice treated for 10 days"}, "[6]": {"details": "FIG. 11, 100 nmol/kg, DIO mice treated for 10 days"}, "[7]": {"details": "FIG. 5, equimolar doses, DIO mice treated for 8 days, compared to vehicle and memantine"}, "[8]": {"details": "FIG. 6, 40 nmol/kg or equimolar, DIO mice treated for 8 days"}}, "note": "Non-standard residues stand in square brackets, D forms with d. Groups on a side chain read outwards from the residue. No end group written: not given here. disulfide linker = not defined here; Pen = CC(C)(S)[C@H](N)C(=O)O", "data": [{"compound": "GLP-1 Pen40: peptide of SEQ ID NO:1 with the Pen40 (L-penicillamine) modification (HAEGTFTSDVSSYLEEQAAKEFIAWLVKGGPSSGAPPPSC; not fully specified (residue 40, C-terminus); ends and bridges not checked; listed as Homo sapiens)", "values": [{"measurement": "reduction in body weight %", "setting": "DIO mice [1]; 100 nmol/kg or equimolar", "value": "approximately 6%"}]}, {"compound": "GLP-1 Cys40/MK801: peptide of SEQ ID NO:1 conjugated with chemical linker derivatized MK801, cysteine linked (HAEGTFTSDVSSYLEEQAAKEFIAWLVKGGPSSGAPPPSC; not fully specified (residue 40, C-terminus); ends and bridges not checked; listed as Homo sapiens)", "values": [{"measurement": "reduction in body weight (BW %)", "setting": "DIO mice [1]; [4]", "value": "~12", "unit": "%"}, {"measurement": "cumulative food intake (FI Cumulative)", "setting": "DIO mice [2]; [5]", "value": "approximately 13 g/day"}, {"measurement": "cumulative food intake less than the vehicle-treated mice", "setting": "DIO mice [2]; FIG. 9, 100 nmol/kg, DIO mice treated for 10 days", "value": "approximately 10 g/day"}, {"measurement": "daily food intake (FI daily)", "setting": "DIO mice [2]; FIG. 10, 100 nmol/kg, DIO mice treated for 10 days, compared to vehicle", "value": "reduction in food intake was observed all 10 days"}, {"measurement": "change in fat mass (reduction)", "setting": "DIO mice [3]; [6]", "value": "~5", "unit": "g"}, {"measurement": "change in lean body mass", "setting": "DIO mice [3]; [6]", "value": "reduction in both fat and lean body mass"}]}, {"compound": "GLP-1 Cys40: the peptide of SEQ ID NO:1, C-terminal unmodified cysteine (HAEGTFTSDVSSYLEEQAAKEFIAWLVKGGPSSGAPPPSC; not fully specified (C-terminus); ends and bridges not checked; listed as Homo sapiens)", "values": [{"measurement": "body weight percentage (BW %) reduction", "setting": "DIO mice [1]", "value": "lowered BW %"}, {"measurement": "reduction in body weight (BW %)", "setting": "DIO mice [1]; [4]", "value": "approximately 8%"}, {"measurement": "body weight reduction", "setting": "DIO mice [1]; FIG. 12, 100 nmol/kg or equimolar, DIO mice, after 5 days of treatment", "value": "approximately 4%"}, {"measurement": "reduction in body weight %", "setting": "DIO mice [1]; 100 nmol/kg or equimolar", "value": "approximately 6%"}, {"measurement": "cumulative food intake (FI Cumulative)", "setting": "DIO mice [2]; [7]", "value": "lowered cumulative food intake"}, {"measurement": "daily food intake (FI daily)", "setting": "DIO mice [2]; [8]", "value": "lowered daily food intake"}, {"measurement": "daily food intake (FI daily)", "setting": "DIO mice [2]; FIG. 6, 40 nmol/kg or equimolar, DIO mice treated for 8 days, listed as GLP-1", "value": "only a slight reduction in food intake"}, {"measurement": "cumulative food intake (FI Cumulative)", "setting": "DIO mice [2]; [5]", "value": "lowered cumulative food intake"}, {"measurement": "change in fat body mass (Delta change)", "setting": "DIO mice [3]", "value": "reduction in fat body mass"}, {"measurement": "change in lean body mass (Delta change)", "setting": "DIO mice [3]", "value": "nearly no change"}]}, {"compound": "CC12CC3CC(C)(C1)CC(N)(C3)C2", "note": "[memantine, reference compound]", "values": [{"measurement": "change in fat body mass (Delta change)", "setting": "DIO mice [3]", "value": "reduction in fat body mass"}, {"measurement": "change in lean body mass (Delta change)", "setting": "DIO mice [3]", "value": "nearly no change"}]}, {"compound": "C[C@]12N[C@H](Cc3ccccc31)c1ccccc12", "note": "[MK801, reference compound]", "values": [{"measurement": "reduction in body weight (BW %)", "setting": "DIO mice [1]; [4]", "value": "nearly no percentage change"}]}, {"compound": "GLP-1 Cys40/Memantine: conjugate of peptide of SEQ ID NO:1 and memantine appended via disulfide linker, unmodified cysteine (cysteine linked) (HAEGTFTSDVSSYLEEQAAKEFIAWLVKGGPSSGAPPPSC; not fully specified (residue 40, C-terminus); ends and bridges not checked; listed as Homo sapiens)", "values": [{"measurement": "body weight percentage (BW %) reduction", "setting": "DIO mice [1]", "value": "approximately 7%"}, {"measurement": "cumulative food intake (FI Cumulative)", "setting": "DIO mice [2]; [7]", "value": "lowered cumulative food intake"}, {"measurement": "daily food intake (FI daily)", "setting": "DIO mice [2]; [8]", "value": "lowered daily food intake"}, {"measurement": "change in fat body mass (Delta change)", "setting": "DIO mice [3]", "value": "approximately 4 g"}, {"measurement": "change in lean body mass (Delta change)", "setting": "DIO mice [3]", "value": "nearly no change"}]}, {"compound": "GIP/GLP-1/MK801 conjugate: co-agonist GIP/GLP-1 Pen40/MK801 conjugate, peptide according to SEQ ID NO:9 (YGEGTFTSDYSIYLDKQAAKEFVNWLLAGGPSSGAPPPS[Pen]([disulfide linker-MK801]); not fully specified (C-terminus); printed as YX1EGT FTSDY SIYLD KQAAX1 EFVNW LLAGG PSSGA PPPSX2; reading uncertain; also: MK801 attached via disulfide linker; listed as Homo sapiens)", "values": [{"measurement": "overall reduction in body weight compared to the control group", "setting": "DIO mice [1]; FIG. 33, 50 nmol/kg, DIO mice treated for 7 days", "value": "approximately 25%"}, {"measurement": "cumulative food intake (Cumulative FI)", "setting": "DIO mice [2]; FIG. 34, 50 nmol/kg, DIO mice treated for 7 days, control group 15 g", "value": "approximately 3 g"}]}]}
